These results are taken from ChEMBL document CHEMBL5500343, “Activity refinement of aryl amino acetamides that target the P. falciparum STAR-related lipid transfer 1 protein” (Eur J Med Chem, 2024).

Each structure is given as a SMILES string. Converted amounts (≈) assume the structure as drawn. The source made the active and inactive calls. The rule behind the calls is not given here.

For data set [1], the system named is Plasmodium falciparum. The data set can be described thus: Antimalarial activity against chloroquine and mefloquine resistant Plasmodium falciparum NF54 assessed as reduction in parasite growth incubated for 72 hrs by [3H]-hypoxanthine incorporation assay. The format is functional, organism-based.
Data set [2] concerns Plasmodium falciparum. The data set can be described thus: Antimalarial activity against DSM-265 resistant Plasmodium falciparum Dd2 harboring DHODH C276F mutant assessed as reduction in parasite growth incubated for 72 hrs by [3H]-hypoxanthine incorporation assay. Type of data set: functional, organism-based.
Data set [3] relates to Plasmodium falciparum. The data set can be described thus: Antimalarial activity against MMV006833 resistant Plasmodium falciparum 3D7 assessed as reduction in parasite growth incubated for 72 hrs by LDH assay. Type of data set: functional, organism-based. As to conditions: 3D7, 72 h.
Data set [4] has as its system Plasmodium falciparum. The experiment in a line: Antimalarial activity against chloroquine and mefloquine resistant Plasmodium falciparum 7G8 assessed as reduction in parasite growth incubated for 72 hrs by [3H]-hypoxanthine incorporation assay. The format is functional, organism-based.
Data set [5] has as its system Plasmodium falciparum. The data set can be described thus: Antimalarial activity against Plasmodium falciparum Dd2 assessed as reduction in parasite growth incubated for 72 hrs by [3H]-hypoxanthine incorporation assay. The format is functional, organism-based.
Data set [6] concerns Plasmodium falciparum. The experiment in a line: Antimalarial activity against MMV006833 resistant Plasmodium falciparum 3D7 harboring START1 N330K mutant assessed as reduction in parasite growth incubated for 72 hrs by LDH assay. As to conditions: 3D7, 72 h. Type of data set: functional, organism-based.
Data set [7] has as its system Plasmodium falciparum. The experiment in a line: Antimalarial activity against asexual blood stage Plasmodium falciparum Dd2-B2 assessed as reduction in parasite growth measured for 60 days by flow cytometry. The format is functional. The note with it: Dd2-B2, 1440 h, time 60 day. In general terms: Flow cytometry measures light scatter and fluorescence of single cells or particles in a stream.

The nature of data set [8]: Lipophilicity, LogD of compound in 1-Octanol and PBS at pH 7.4 at 7.5 uM incubated for 2 hrs shake flask method based LC-MS/MS analysis. The format is physicochemical. As to conditions: 1-octanol/PBS.
Data set [9] relates to Plasmodium falciparum. The data set can be described thus: Antimalarial activity against asexual blood stage Plasmodium falciparum 3D7 assessed as reduction in parasite growth incubated for 72 hrs by LDH assay. The note with it: 3D7, 72 h. The format is functional, organism-based.
Data set [10] in a line: Intrinsic clearance in rat hepatocyte measured per 10^6 cells at 1 uM incubated upto 90 mins by LC-MS/MS analysis. As to conditions: rat hepatocytes, read-out: CLH. The format is ADME, cell-based.
A short description of data set [11]: Kinetic aqueous solubility of the compound in PBS at pH 7.4 incubated for 2 hr under shaking condition by shake flask based UV reader plate analysis. Type of data set: physicochemical. The note with it: read-out: Kinetic_solubility.
The subject of data set [12] is Plasmodium falciparum. The data set can be described thus: Antimalarial activity against DDD-107498 resistant Plasmodium falciparum Dd2 harboring eEF2 Y86N mutant assessed as reduction in parasite growth incubated for 72 hrs by [3H]-hypoxanthine incorporation assay. Type of data set: functional, organism-based.
A short description of data set [13]: Binding affinity to recombinant Plasmodium falciparum START1 assessed as dissociation constant by isothermal titration calorimetry. For orientation: ITC needs no label: the signal is the heat of the interaction.
The nature of data set [14]: Intrinsic clearance in human liver microsomes at 1 uM incubated upto 60 mins in presence of NADPH by LC-MS/MS analysis. As to conditions: read-out: CLH. Type of data set: ADME, Microsome.
Data set [15] relates to Plasmodium falciparum. The data set can be described thus: Antimalarial activity against MMV006833 resistant Plasmodium falciparum 3D7 harboring START1 N309K mutant assessed as reduction in parasite growth incubated for 72 hrs by LDH assay. The note with it: 3D7, 72 h. The format is functional, organism-based.
For data set [16], the system named is Plasmodium falciparum. The experiment in a line: Antimalarial activity against asexual blood stage Plasmodium falciparum Dd2-B2 assessed as reduction in recrudescence measured for 60 days by flow cytometry. The format is functional, organism-based. The note with it: time 60.0 day.
Data set [17] deals with Plasmodium falciparum. The data set can be described thus: Antimalarial activity against atovaquone resistant Plasmodium falciparum TM90-C2B assessed as reduction in parasite growth incubated for 72 hrs by [3H]-hypoxanthine incorporation assay. Type of data set: functional, organism-based.
The subject of data set [18] is Plasmodium falciparum. The experiment in a line: Antimalarial activity against MMV-048 resistant Plasmodium falciparum Dd2 harboring PI4K S743T mutant assessed as reduction in parasite growth incubated for 72 hrs by [3H]-hypoxanthine incorporation assay. The format is functional, organism-based.
In a further data set the test system is HepG2. The data set can be described thus: Cytotoxicity against human HepG2 cells assessed as reduction in cell viability incubated for 48 hrs by Cell Titer-Glo assay. The format is functional, cell-based. As to conditions: HepG2, 48 h. A general note: In ATP-based viability assays light output follows the ATP content of the culture.
The subject of data set [19] is Plasmodium falciparum. The data set can be described thus: Antimalarial activity against ELQ-300 resistant Plasmodium falciparum Dd2 harboring Cyt b I22L mutant assessed as reduction in parasite growth incubated for 72 hrs by [3H]-hypoxanthine incorporation assay. The format is functional, organism-based.
The test system of data set [20] is Plasmodium falciparum. The data set can be described thus: Antimalarial activity against chloroquine and mefloquine resistant Plasmodium falciparum K1 assessed as reduction in parasite growth incubated for 72 hrs by [3H]-hypoxanthine incorporation assay. Type of data set: functional, organism-based.
In data set [21] the test system is Plasmodium falciparum. The data set can be described thus: Antimalarial activity against asexual blood stage Plasmodium falciparum Dd2-F6 assessed as minimum inoculum of resistance at 2.2 times IC50 measured for 35 days by SYBR Green I dye based flow cytometry. The format is functional. As to conditions: time 35 day.
In data set [22] the test system is Plasmodium falciparum. The experiment in a line: Antimalarial activity against chloroquine and mefloquine resistant Plasmodium falciparum RF12 assessed as reduction in parasite growth incubated for 72 hrs by [3H]-hypoxanthine incorporation assay. The format is functional, organism-based.
Data set [23] concerns Plasmodium falciparum. The experiment in a line: Antimalarial activity against KAF-156 resistant Plasmodium falciparum Dd2 harboring CARL I1139K mutant assessed as reduction in parasite growth incubated for 72 hrs by [3H]-hypoxanthine incorporation assay. The format is functional, organism-based.
For data set [24], the system named is Plasmodium falciparum. The experiment in a line: Antimalarial activity against asexual blood stage Plasmodium falciparum Dd2-F6 assessed as minimum inoculum of resistance at 5 times IC50 measured for 35 days by SYBR Green I dye based flow cytometry. Type of data set: functional. The note with it: time 35 day.
Data set [25] in a line: Drug concentration in Swiss mouse plasma at 50 mg/kg,po administration measured upto 24 hrs by LC-MS/MS analysis. As to conditions: in vivo. Type of data set: ADME, organism-based.
Data set [26] is described as follows: Drug concentration in Swiss mouse plasma at 50 mg/kg,po administration measured after 12 hrs by LC-MS/MS analysis. The format is ADME, organism-based. As to conditions: in vivo.
Data set [27] is described as follows: Apparent half life in Swiss mouse at 50 mg/kg,po administration measured for 4 to 24 hrs by LC-MS/MS analysis. Type of data set: ADME, organism-based. As to conditions: in vivo, time 4-24 hrs, read-out: t1/2(app) (converted).
Data set [28] has as its system Plasmodium falciparum. The experiment in a line: Binding affinity to recombinant Plasmodium falciparum START1 assessed as change in entropy at 10 uM by isothermal titration calorimetry.
For data set [29], the system named is Plasmodium falciparum. The experiment in a line: Binding affinity to recombinant Plasmodium falciparum START1 assessed as change in enthalpy at 10 uM by isothermal titration calorimetry.
The nature of data set [30]: Toxicity in Swiss mouse at 50 mg/kg,po administration measured upto 24 hrs by LC-MS/MS analysis. The format is organism-based. As to conditions: in vivo.
In data set [31] the test system is Plasmodium berghei. The data set can be described thus: Antimalarial activity against Plasmodium berghei ANKA infected in mouse assessed as reduction of parasitaemia at 50 mg/kg,po bid administrated for 72 hrs and measured after 24 hrs post last dose by Giemsa staining based microscopic analysis. Type of data set: functional, organism-based. The note with it: time 96.0 hrs.

Data set [32] can be described thus: Toxicity in mouse infected with Plasmodium berghei ANKA assessed as change in body weight at 50 mg/kg,po bid administrated for 72 hrs and measured after 24 hrs post last dose. Type of data set: organism-based. As to conditions: in vivo.
The nature of data set [33]: Drug concentration in Swiss mouse plasma at 50 mg/kg,po administration measured after 15 mins by LC-MS/MS analysis. Type of data set: ADME, organism-based.
The subject of data set [34] is Plasmodium berghei. The data set can be described thus: Antimalarial activity against Plasmodium berghei ANKA infected in mouse assessed as reduction of parasitaemia at 30 mg/kg,po bid administrated for 72 hrs and measured after 24 hrs post last dose by Giemsa staining based microscopic analysis relative to control. Type of data set: functional. Also on record: scale not given: the % may be the effect or the level left. The note with it: time 96 hrs.

As to `CC(C)(Nc1ccc(Cl)c(S(=O)(=O)N2CCOCC2)c1)C(=O)Nc1ccc(F)c(Cl)c1`, the EC50 (commonly the midpoint of the concentration-response curve) turned out to be 2 nM in the data set on Plasmodium falciparum [1]; 1 nM in the data set with Plasmodium falciparum [2]; 4 nM with Plasmodium falciparum [3]; 1 nM in the data set on Plasmodium falciparum [4]; 1 nM with Plasmodium falciparum [5]; 2200 nM in the data set with Plasmodium falciparum [6]. In addition, the EC50 in the data set on Plasmodium falciparum [9] is 5 nM; in the data set with Plasmodium falciparum [12], 1 nM; in the data set with Plasmodium falciparum [15] it was 3200 nM; in the data set on Plasmodium falciparum [17], 1 nM; in the data set on Plasmodium falciparum [18] it was 1 nM; in the data set on HepG2 it was 31500 nM. Besides, the EC50 was 1 nM with Plasmodium falciparum [19], 2 nM in the data set with Plasmodium falciparum [20], 1 nM in the data set with Plasmodium falciparum [22] and 1 nM with Plasmodium falciparum [23]. Besides, the 90% effect concentration (EC90) – broadly, the concentration needed for an effect of 90% – in the data set on Plasmodium falciparum [7] came to 9.7 nM. Moreover, the logD (in general, lipophilicity at a set pH, counting ionised and neutral species) at 2 h, 7.5 µM in data set [8] turned out to be 3.9. Also, the hepatocyte CLint at 1 µM in data set [10] is above 92 µL/min/1e6 cells. Moreover, in [11], the solubility kinetic at 2 h is 16 µM (≈ 7.85 µg/mL). Also, in data set [13], the Kd (as a rule, the equilibrium constant for the complex coming apart) was determined as 10 nM. For the same compound, the microsomal CLint at 1 µM in [14] was above 462 µL/min/mg. In the data set with Plasmodium falciparum [16], the outcome was inactive. Besides, the Activity with Plasmodium falciparum [21] is on record as 1.9 10^7No_unit.
`O=C(CNc1ccc(Cl)c(S(=O)(=O)N2CCOCC2)c1)Nc1ccc(F)c(Cl)c1`: the EC50 with Plasmodium falciparum [1] was 42 nM; in the data set with Plasmodium falciparum [2], 20 nM; with Plasmodium falciparum [4], 26 nM; with Plasmodium falciparum [5], 54 nM; in the data set with Plasmodium falciparum [9] it was 80 nM; in the data set on Plasmodium falciparum [12] it was 28 nM. In addition, the EC50 in the data set with Plasmodium falciparum [17] is 31 nM; in the data set on Plasmodium falciparum [18], 28 nM; in the data set on HepG2 it was above 40000 nM; with Plasmodium falciparum [19], 24 nM; with Plasmodium falciparum [20], 48 nM; with Plasmodium falciparum [22], 32 nM. The EC50 in the data set with Plasmodium falciparum [23] came out at 26 nM. Further, the pH-dependent lipophilicity (logD) at 2 h, 7.5 µM in data set [8] was determined as 2.2. For the same compound, the hepatocyte CLint at 1 µM in [10] was above 92 µL/min/1e6 cells. Besides, the solubility kinetic at 2 h in data set [11] amounted to 19 µM (≈ 8.78 µg/mL). Also, in data set [14], the microsomal CLint at 1 µM is above 462 µL/min/mg.
Turning to `Cc1cc(Nc2ccc(S(F)(F)(F)(F)F)cc2)n2nc(C(C)(F)F)nc2n1` [DSM-265], the EC50 in the data set on Plasmodium falciparum [2] was found to be 470 nM; in the data set on Plasmodium falciparum [5] it was 24 nM. In addition, the Activity with Plasmodium falciparum [24] is listed as 1.6 10^6No_unit.
As for `CC(C)(Nc1ccc(Cl)c(S(=O)(=O)N2CCOCC2)c1)C(=O)Nc1cncc(Cl)c1`, the Drug uptake result in [25] and in data set [26] was “Active” in each case. In addition, the half-life in [27] is 5.9 h. For the same compound, the -TdeltaS with Plasmodium falciparum [28] is 0.8 kcal/mol. The compound also showed a logD at 2 h, 7.5 µM in [8] of 3.2. Moreover, the concentration giving a half-maximal response (EC50) was 15 nM with Plasmodium falciparum [9] and above 40000 nM in the data set on HepG2. Besides, in data set [10], the hepatocyte CLint at 1 µM worked out at 68 µL/min/1e6 cells. Besides, in the data set on Plasmodium falciparum [29], the deltaH was -11.6 kcal/mol. The solubility kinetic at 2 h in data set [11] stood at 60 µM (≈ 28.4 µg/mL). In addition, the Kd in data set [13] amounted to 14 nM. In data set [14], the microsomal CLint at 1 µM is above 462 µL/min/mg. In addition, the Activity result in data set [30] and in data set [32] was “Non-Toxic” each time. For the same compound, the result with Plasmodium berghei [31] was inactive. In data set [33], the concentration at 0.25 h is around 1200 nM.
For the compound `C[C@@H]1CC[C@H]2[C@@H](C)C(=O)O[C@@H]3O[C@@]4(C)CC[C@@H]1[C@]32OO4` [ARTEMISININ], in the data set on Plasmodium berghei [34], the Activity was above 98%.
